Laboratory results reported in ChEMBL document CHEMBL3046026, “Evaluation of the curative and protectant activity of fungicides and fungicide-adjuvant mixtures on Phomopsis cane and leaf spot of grape: A controlled environment study” (2007).
The source made the active and inactive calls. The calls are words filed in the database; no cut-off is given here.

Experiments:
Diaporthe ampelina [1] = test: Antifungal activity against Diaporthe ampelina infected grape plant assessed as decrease in lesions on leaf at 0.25 […] a.i./ha incubated for 24 hr prior to treatment with 20 hr wetness period followed by 4 hr of drying period measured after 4 weeks relative to control in presence of regulaid; assay type: functional, organism-based
Diaporthe ampelina [2] = test: Antifungal activity against Diaporthe ampelina infected grape plant assessed as disease severity at internodes at 0.25 […] a.i./ha treated 3 to 6 hr prior to inoculation followed by 24 hr wetness period measured after 4 weeks in presence of regulaid (reference value: 2.9%); assay type: functional
Diaporthe ampelina [3] = test: Antifungal activity against Diaporthe ampelina infected grape plant assessed as decrease in lesions on leaf at 1.7 m3/ha incubated for 24 hr prior to treatment with 20 hr wetness period followed by 4 hr of drying period measured after 4 weeks relative to control in presence of regulaid; assay type: functional, organism-based
Diaporthe ampelina [4] = test: Antifungal activity against Diaporthe ampelina infected grape plant assessed as decrease in lesions on leaf at 0.25 […] a.i./ha incubated for 48 hr prior to treatment with 24 hr wetness period followed by 24 hr of drying period measured after 4 weeks relative to control in presence of regulaid; assay type: functional, organism-based
Diaporthe ampelina [5] = test: Antifungal activity against Diaporthe ampelina infected grape plant assessed as decrease in lesions on leaf at 0.25 […] a.i./ha incubated for 20 hr prior to treatment with 16 hr wetness period followed by 4 hr of drying period measured after 4 weeks relative to control in presence of regulaid; assay type: functional, organism-based
Diaporthe ampelina [6] = test: Antifungal activity against Diaporthe ampelina infected grape plant assessed as re-isolation of mycelium from infected vines at 0.25 […] a.i./ha treated for weeks in presence of regulaid followed by inoculation on medium measured after 72 hr (reference value: 62.5%); assay type: functional
Diaporthe ampelina [7] = test: (§1) Antifungal activity against Diaporthe ampelina infected grape plant assessed as disease severity at internodes at 0.25 […] a.i./ha incubated for 24 hr prior to treatment with 20 hr wetness period followed by 4 hr of drying period measured after 4 weeks in presence of regulaid (reference value: 4.7%); assay type: functional
Diaporthe ampelina [8] = test: Antifungal activity against Diaporthe ampelina infected grape plant assessed as decrease in lesions on leaf at 0.25 […] a.i./ha treated 3 to 6 hr prior to inoculation followed by 24 hr wetness period measured after 4 weeks relative to control in presence of regulaid; assay type: functional, organism-based
Diaporthe ampelina [9] = test: Antifungal activity against Diaporthe ampelina infected grape plant assessed as disease severity at internodes at 0.25 […] a.i./ha treated 3 to 6 hr prior to inoculation followed by 24 hr wetness period measured after 4 weeks (reference value: 2.6%); assay type: functional
Diaporthe ampelina [10] = test: as §1, with “for 48” for “for 24”, “with 24” for “with 20”, “by 24” for “by 4”, “value: 12.2%)” for “value: 4.7%)”; assay type: functional
Diaporthe ampelina [11] = test: Antifungal activity against Diaporthe ampelina infected grape plant assessed as disease severity at internodes at 1.7 m3/ha incubated for 24 hr prior to treatment with 20 hr wetness period followed by 4 hr of drying period measured after 4 weeks in presence of regulaid (reference value: 3.2%); assay type: functional
Diaporthe ampelina [12] = test: Antifungal activity against Diaporthe ampelina infected grape plant assessed as decrease in lesions on leaf at 0.25 […] a.i./ha treated 3 to 6 hr prior to inoculation followed by 24 hr wetness period measured after 4 weeks relative to control; assay type: functional, organism-based
Diaporthe ampelina [13] = test: Antifungal activity against Diaporthe ampelina infected grape plant assessed as disease severity at internodes at 0.25 […] a.i./ha incubated for 20 hr prior to treatment with 16 hr wetness period followed by 4 hr of drying period measured after 4 weeks in presence of regulaid (reference value: 7.3%); assay type: functional

CO/C=C(/C(=O)OC)c1ccccc1Oc1cc(Oc2ccccc2C#N)ncn1 [AZOXYSTROBIN]
Activity (Diaporthe ampelina [1]): inactive
Activity (Diaporthe ampelina [2]): 0.1%
Activity (Diaporthe ampelina [3]): inactive
Activity (Diaporthe ampelina [4]): inactive
Activity (Diaporthe ampelina [5]): inactive
Activity (Diaporthe ampelina [6]): 8.4%
Activity (Diaporthe ampelina [7]): 4.9%
Activity (Diaporthe ampelina [8]): Active
Activity (Diaporthe ampelina [9]): 0.3%
Activity (Diaporthe ampelina [10]): 3.7%
Activity (Diaporthe ampelina [11]): 3.2%
Activity (Diaporthe ampelina [12]): Active
Activity (Diaporthe ampelina [13]): 5.3%
